The results in this text go back to PMC5833296 (Journal of medicinal chemistry, 2018).

Each structure is given as a SMILES string. pIC50: −log10 of the molar value. Read-outs that look alike come from different tables or passages of the source. Some results are limits rather than exact numbers.

One series addresses BoNT/A holotoxin (Clostridium botulinum, UniProt P0DPI1). Briefly: cell-based.
The test system of another series is healthy mice. Particulars: mouse, in vivo, po, 160 mg/kg.

As usually defined, the pIC50 is the IC50 on a negative log10 scale, so that one unit is a factor of ten. A low value points to a large IC50.

BoNT/A holotoxin, sequence (P0DPI1 2-448 limits assumed): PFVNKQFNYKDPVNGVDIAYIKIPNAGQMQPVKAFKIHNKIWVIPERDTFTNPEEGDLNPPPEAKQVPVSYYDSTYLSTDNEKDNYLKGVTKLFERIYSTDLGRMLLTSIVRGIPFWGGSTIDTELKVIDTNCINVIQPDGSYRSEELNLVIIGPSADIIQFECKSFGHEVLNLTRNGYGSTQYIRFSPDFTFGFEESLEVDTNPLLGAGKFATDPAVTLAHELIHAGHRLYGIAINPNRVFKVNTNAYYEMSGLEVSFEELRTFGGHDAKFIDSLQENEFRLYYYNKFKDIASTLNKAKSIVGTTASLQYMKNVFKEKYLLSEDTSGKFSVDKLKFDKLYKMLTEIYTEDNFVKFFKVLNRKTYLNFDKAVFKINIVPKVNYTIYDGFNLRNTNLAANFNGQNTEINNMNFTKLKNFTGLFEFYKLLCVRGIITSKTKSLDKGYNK

For the compound `N#Cc1ccc(-c2ccc(-c3cccc(CNCCCCCCNc4ccnc5ccccc45)c3)s2)cc1` [Compound 50], the “% of full length SNAP-25, mES-MNs pre intoxication” value at BoNT/A holotoxin (10 μM) and on BoNT/A holotoxin (20 μM) was 46; 71% each time. Besides, the “exp LogD” value (pH 1) is 3.08 (pH=1).

Take `CN(CCCCNc1ccnc2ccccc12)Cc1ccc(-c2csc3ccc(F)cc23)cc1` [Compound 37]: the “% of full length SNAP-25, mES-MNs pre intoxication” value at BoNT/A holotoxin (10 μM) and at BoNT/A holotoxin (20 μM) was 44; 55% in each case. Besides, the “exp LogD” value (pH 10) was 3.98 (pH=10).

In the case of `CC(CCNc1ccnc2ccccc12)NCCC12CC3CC(CC(C3)C1)C2` (stereo not drawn) [Compound 81], the “% of full length SNAP-25, mES-MNs pre intoxication” value at BoNT/A holotoxin (10 μM) and on BoNT/A holotoxin (20 μM) was 23; 24% throughout.

Regarding `CC(=O)O[C@H]1C[C@H]2[C@@H]([C@H](OC(C)=O)C[C@@H]3C[C@H](N)CC[C@@]32C)[C@@H]2CC[C@H]([C@H](C)CCCNC(C)CCCNc3ccnc4ccccc34)[C@@]12C` (stereo partly drawn) [Compound 19], the “% of full length SNAP-25, mES-MNs pre intoxication” value on BoNT/A holotoxin (10 μM) and on BoNT/A holotoxin (20 μM) was 86; 87% each time. For the same compound, the “exp LogD” value (pH 1) is recorded as 2.21 (pH=1). In addition, in the series with healthy mice, the “Mice alive/Total mice” value is 3/5.

Turning to `CC(CCN(C)CC12CC3CC(CC(C3)C1)C2)Nc1ccnc2cc(Cl)ccc12` (stereo not drawn) [Compound 60], at BoNT/A holotoxin, the negative-log IC50 (pIC50) was above 5.00 and the “protection of SNAP-25, pre-exposure dose-response experiment” value is listed as 90%. The “% of full length SNAP-25, mES-MNs pre intoxication” value on BoNT/A holotoxin (10 μM) is given as 63; 72%. Moreover, at BoNT/A holotoxin (20 μM), the “% of full length SNAP-25, mES-MNs pre intoxication” value is 63; 72%. For the same compound, where the note is “pH 10”, the “exp LogD” value is 3.47 (pH=10). Also, the “Mice alive/Total mice” value with healthy mice is reported as 3/5.

Take `CC(CCNc1ccnc2cc(Cl)ccc12)NCC12CC3CC(CC(C3)C1)C2` (stereo not drawn) [Compound 102]: the “% of full length SNAP-25, mES-MNs pre intoxication” value on BoNT/A holotoxin (10 μM) and at BoNT/A holotoxin (20 μM) was 29; 30% in each case. The “exp LogD” value (pH 10) is given as 3.40 (pH=10).

With `N#Cc1ccc(-c2ccc(-c3ccc(CNCCCCCCNc4ccnc5ccccc45)cc3)s2)cc1` [Compound 46], the “% of full length SNAP-25, mES-MNs pre intoxication” value on BoNT/A holotoxin (10 μM) and at BoNT/A holotoxin (20 μM) was 22; 48% each time. The “exp LogD” value (pH 1) is recorded as 3.08 (pH=1).

`CC(CCCNc1ccnc2ccccc12)NCc1ccc(-c2csc3ccc(F)cc23)cc1` (stereo not drawn) [Compound 34]: at BoNT/A holotoxin, the “% of full length SNAP-25, mES-MNs pre intoxication” value is recorded as 58; 68% and the negative-log IC50 (pIC50) was 4.70 to 5.00. In addition, the “exp LogD” value (pH 10) is listed as 3.85 (pH=10). The “Mice alive/Total mice” value with healthy mice is on record as 5/5.

Turning to `CC(=O)O[C@H]1C[C@H]2[C@@H]([C@H](OC(C)=O)C[C@@H]3C[C@H](N)CC[C@@]32C)[C@@H]2CC[C@H]([C@H](C)CCCN(C)CCCCNc3ccnc4ccccc34)[C@@]12C` [Compound 15], the “% of full length SNAP-25, mES-MNs pre intoxication” value on BoNT/A holotoxin (10 μM) and on BoNT/A holotoxin (20 μM) was 70; 69% in each case. Also, the “exp LogD” value (pH 1) is 2.11 (pH=1).

For the compound `CC(=O)O[C@H]1C[C@H]2[C@@H]([C@H](OC(C)=O)C[C@@H]3C[C@H](N)CC[C@@]32C)[C@@H]2CC[C@H]([C@H](C)CCCNCCCCNc3ccnc4ccccc34)[C@@]12C` [Compound 14], the pIC50 against BoNT/A holotoxin was 4.70 to 5.00. Moreover, the “% of full length SNAP-25, mES-MNs pre intoxication” value at BoNT/A holotoxin (10 μM) and at BoNT/A holotoxin (20 μM) was 28; 67% each time. Also, the “exp LogD” value (pH 1) was 2.14 (pH=1).

With `N#Cc1ccc(-c2ccc(-c3ccc(CNCCCCCCCCNc4ccnc5ccccc45)cc3)s2)cc1` [Compound 93], the “% of full length SNAP-25, mES-MNs pre intoxication” value at BoNT/A holotoxin is 31; 70%. Moreover, under “pH 1”, the “exp LogD” value is 3.42 (pH=1). The “Mice alive/Total mice” value in the series with healthy mice was 5/5.

With `CC(CCNCCC12CC3CC(CC(C3)C1)C2)Nc1c(F)cnc2ccccc12` (stereo not drawn) [Compound 106], the “% of full length SNAP-25, mES-MNs pre intoxication” value at BoNT/A holotoxin (10 μM) and at BoNT/A holotoxin (20 μM) was 30; 32% throughout. In addition, under “pH 10”, the “exp LogD” value is 4.13 (pH=10).

Take `CC(=O)O[C@H]1C[C@H]2[C@@H]([C@H](OC(C)=O)C[C@@H]3C[C@H](N)CC[C@@]32C)[C@@H]2CC[C@H]([C@H](C)CCCNCCCC(C)Nc3ccnc4ccccc34)[C@@]12C` (stereo partly drawn) [Compound 17]: the “% of full length SNAP-25, mES-MNs pre intoxication” value at BoNT/A holotoxin (10 μM) and on BoNT/A holotoxin (20 μM) was 67; 69% each time. Moreover, for the setting “pH 1”, the “exp LogD” value was 2.28 (pH=1).

Consider `N#Cc1ccc2scc(-c3ccc(CNCCCCNc4ccnc5ccccc45)cc3)c2c1` [Compound 86], for which the “% of full length SNAP-25, mES-MNs pre intoxication” value at BoNT/A holotoxin (10 μM) and on BoNT/A holotoxin (20 μM) was 21; 26% each time. The “exp LogD” value (pH 10) is reported as 3.67 (pH=10).

As to `N#Cc1ccc(-c2ccc(-c3ccc(CNCCCCNc4ccnc5ccccc45)cc3)s2)cc1` [Compound 101], the “% of full length SNAP-25, mES-MNs pre intoxication” value at BoNT/A holotoxin (10 μM) and at BoNT/A holotoxin (20 μM) was 18; 39% in each case. For the same compound, where the note is “pH 1”, the “exp LogD” value is on record as 2.93 (pH=1).

For `CC(CCNCC12CC3CC(CC(C3)C1)C2)Nc1c(F)cnc2cc(Cl)ccc12` (stereo not drawn) [Compound 104], the “% of full length SNAP-25, mES-MNs pre intoxication” value on BoNT/A holotoxin (10 μM) and on BoNT/A holotoxin (20 μM) was 31; 35% throughout. The “exp LogD” value (pH 10) is reported as 3.24 (pH=10).

As for `CC(CCN(C)CC12CC3CC(CC(C3)C1)C2)Nc1ccnc2ccccc12` (stereo not drawn) [Compound 85], at BoNT/A holotoxin, the “% of full length SNAP-25, mES-MNs pre intoxication” value is on record as 47; 46%.

Regarding `N#Cc1ccc2scc(-c3ccc(CNCCCCCCNc4ccnc5ccccc45)cc3)c2c1` [Compound 87], the “% of full length SNAP-25, mES-MNs pre intoxication” value at BoNT/A holotoxin (10 μM) and at BoNT/A holotoxin (20 μM) was 36; 43% each time. Under “pH 10”, the “exp LogD” value is 3.85 (pH=10).

`CC(CCCNCc1ccc(-c2csc3ccc(F)cc23)cc1)Nc1ccnc2ccccc12` (stereo not drawn) [Compound 91]: on BoNT/A holotoxin, the “% of full length SNAP-25, mES-MNs pre intoxication” value is 62; 62%. Moreover, the “exp LogD” value (pH 10) was 3.98 (pH=10).

Consider `CC(CCCNCc1ccc(-c2csc3ccc(C#N)cc23)cc1)Nc1ccnc2ccccc12` (stereo not drawn) [Compound 36], for which the “% of full length SNAP-25, mES-MNs pre intoxication” value at BoNT/A holotoxin (10 μM) and at BoNT/A holotoxin (20 μM) was 34; 53% each time. In addition, the “exp LogD” value (pH 10) was 3.67 (pH=10).

`CC(=O)O[C@H]1C[C@H]2[C@@H]([C@H](OC(C)=O)C[C@@H]3C[C@H](N)CC[C@@]32C)[C@@H]2CC[C@H]([C@H](C)CCCN(C)CCCC(C)Nc3ccnc4ccccc34)[C@@]12C` (stereo partly drawn) [Compound 18]: the “% of full length SNAP-25, mES-MNs pre intoxication” value at BoNT/A holotoxin is on record as 20; 41%. For the setting “pH 1”, the “exp LogD” value is listed as 2.38 (pH=1).

As for `CN(CCCNc1ccnc2ccccc12)CC12CC3CC(CC(C3)C1)C2` [Compound 68], the “% of full length SNAP-25, mES-MNs pre intoxication” value at BoNT/A holotoxin (10 μM) and at BoNT/A holotoxin (20 μM) was 30; 31% throughout.

Regarding `CC(CCCN(C)Cc1ccc(-c2csc3ccc(C#N)cc23)cc1)Nc1ccnc2ccccc12` (stereo not drawn) [Compound 38], at BoNT/A holotoxin, the “% of full length SNAP-25, mES-MNs pre intoxication” value is reported as 59; 64% and the pIC50 is 4.70 to 5.00. The “exp LogD” value (pH 10) is given as 3.42 (pH=10).

Consider `CC(CCNCC12CC3CC(CC(C3)C1)C2)Nc1c(F)cnc2ccccc12` (stereo not drawn) [Compound 105], for which the “% of full length SNAP-25, mES-MNs pre intoxication” value at BoNT/A holotoxin (10 μM) and on BoNT/A holotoxin (20 μM) was 24; 23% throughout. Where the note is “pH 10”, the “exp LogD” value is given as 3.09 (pH=10).

With `CC(CCNCCC12CC3CC(CC(C3)C1)C2)Nc1c(F)cnc2cc(Cl)ccc12` (stereo not drawn) [Compound 103], the “% of full length SNAP-25, mES-MNs pre intoxication” value at BoNT/A holotoxin (10 μM) and on BoNT/A holotoxin (20 μM) was 30; 29% throughout. Besides, where the note is “pH 10”, the “exp LogD” value was 4.33 (pH=10).
